Results on 2 compounds are retold here after PMC3685175 (Journal of medicinal chemistry, 2013).

Common to all, as to type: biochemical
One data set concerns the target T1, P450 1B1 (Homo sapiens, UniProt Q16678).
T1 sequence (Q16678 1-543): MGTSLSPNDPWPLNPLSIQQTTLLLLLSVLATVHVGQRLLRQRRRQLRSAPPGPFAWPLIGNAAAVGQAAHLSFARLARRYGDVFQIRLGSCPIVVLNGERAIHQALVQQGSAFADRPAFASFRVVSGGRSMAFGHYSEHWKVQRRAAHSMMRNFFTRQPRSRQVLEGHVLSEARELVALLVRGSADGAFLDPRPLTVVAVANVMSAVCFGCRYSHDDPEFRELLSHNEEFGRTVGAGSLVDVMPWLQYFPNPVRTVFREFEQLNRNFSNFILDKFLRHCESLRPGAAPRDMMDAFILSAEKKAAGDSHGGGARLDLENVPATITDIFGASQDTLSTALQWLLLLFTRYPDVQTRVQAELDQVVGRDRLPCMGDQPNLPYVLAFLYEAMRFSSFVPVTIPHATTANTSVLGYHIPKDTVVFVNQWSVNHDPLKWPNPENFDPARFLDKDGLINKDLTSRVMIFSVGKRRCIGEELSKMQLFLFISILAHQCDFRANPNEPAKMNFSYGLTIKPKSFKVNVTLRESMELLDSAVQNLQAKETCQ
The conditions noted are these: from IC50 values.

In a further data set the target is T2, P450 1A2 (Homo sapiens, UniProt P05177).
T2 sequence (P05177 1-516): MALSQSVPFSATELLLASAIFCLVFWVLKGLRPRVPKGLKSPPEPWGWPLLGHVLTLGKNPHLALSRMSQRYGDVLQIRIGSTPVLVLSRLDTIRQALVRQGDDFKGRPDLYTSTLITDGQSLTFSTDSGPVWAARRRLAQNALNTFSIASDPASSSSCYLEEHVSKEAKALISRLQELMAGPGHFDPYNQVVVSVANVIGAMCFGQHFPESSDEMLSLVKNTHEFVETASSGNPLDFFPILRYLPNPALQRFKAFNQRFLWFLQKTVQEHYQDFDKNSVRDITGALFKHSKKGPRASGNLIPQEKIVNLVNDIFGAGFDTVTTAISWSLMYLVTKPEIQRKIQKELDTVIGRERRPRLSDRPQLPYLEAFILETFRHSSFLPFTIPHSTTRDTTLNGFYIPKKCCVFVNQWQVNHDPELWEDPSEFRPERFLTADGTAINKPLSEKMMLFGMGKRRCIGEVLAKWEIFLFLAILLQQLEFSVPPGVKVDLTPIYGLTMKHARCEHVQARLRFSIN

The target in a further data set is T3, P450 1A1 (Homo sapiens, UniProt P04798).
T3 sequence (P04798 1-512): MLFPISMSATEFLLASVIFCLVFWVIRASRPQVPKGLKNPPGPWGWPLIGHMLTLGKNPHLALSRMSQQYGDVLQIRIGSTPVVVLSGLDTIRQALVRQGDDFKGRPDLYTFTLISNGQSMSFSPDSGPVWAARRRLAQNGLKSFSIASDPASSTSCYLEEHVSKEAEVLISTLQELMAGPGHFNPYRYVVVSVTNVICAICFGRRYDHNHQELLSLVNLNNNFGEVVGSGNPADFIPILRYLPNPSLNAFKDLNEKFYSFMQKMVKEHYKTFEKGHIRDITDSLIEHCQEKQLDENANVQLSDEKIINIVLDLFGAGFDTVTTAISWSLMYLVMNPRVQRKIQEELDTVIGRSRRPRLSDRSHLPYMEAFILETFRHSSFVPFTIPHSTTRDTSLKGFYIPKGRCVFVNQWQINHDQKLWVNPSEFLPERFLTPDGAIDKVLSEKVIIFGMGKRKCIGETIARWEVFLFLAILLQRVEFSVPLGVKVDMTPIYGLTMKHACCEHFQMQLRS

[1] abbreviates: Kitz-Wilson plot, mechanism-based inactivation.

For `C#CCOc1ccc(-c2cc(=O)c3c(O)cccc3o2)cc1` [5H4′FPE, 5-Hydroxy-2-(4-(propargyloxy)phenyl)-4H-chromen-4-one], on P450 1B1, the “selectivity for P450 1B1 over P450 1A1” value is reported as 120 times and the “selectivity for P450 1B1 over P450 1A2” value was “more than 250 times”. Also, the “effect on P450 1A2” value at P450 1A2 (0.1 μM inhibitor, in words) was “without having any significant effect”. At P450 1A2 (in words (conclusion)), the “inhibition of P450 1A2” value was “no inhibition”. Also, the “effect on P450 1A1” value on P450 1A1 (0.1 μM inhibitor, in words) is recorded as “without having any significant effect”.
For `C#CCOc1cccc(-c2cc(=O)c3c(O)cccc3o2)c1` [5H3′FPE, 5-Hydroxy-2-(3-(propargyloxy)phenyl)-4H-chromen-4-one], at P450 1A2 (setting [1]), the “KI, P450 1A2” value is 71 nM. Also, the “mechanism of inhibition of P450 1A2” value on P450 1A2 (in words) was “mechanism-based inhibitor”. For the same compound, the “KI, P450 1A1” value on P450 1A1 (setting [1]) is 130 nM. Besides, the “mechanism of inhibition of P450 1A1” value on P450 1A1 (in words) is on record as “mechanism-based inhibitor”.
